Literature values as cited in patent US9375525B2, “Modular extracorporeal systems and methods for treating blood-borne diseases” (Somerset Group Enterprises, Inc., priority 2012, dated 2016).
Like-named read-outs stand apart in the source and are kept apart here.

Experiments:
[1] = test system: pathogens; settings: bactericidal or static
[2] = test system: S. aureus; settings: basic conditions versus slightly acidic conditions
[3] = test system: Listeria; settings: carbonation volume of about 2, about 35° C., pressure up to about 350 MPa, about 300 seconds

Molecule	activity [1]	Issues with Respect to In vivo Toxicity or Side Effects (in vivo)	other results
CCCCCCCCCC(=O)N[C@@H](Cc1c[nH]c2ccccc12)C(=O)N[C@H](CC(N)=O)C(=O)N[C@@H](CC(=O)O)C(=O)N[C@@H]1C(=O)NCC(=O)N[C@@H](CCCN)C(=O)N[C@@H](CC(=O)O)C(=O)N[C@H](C)C(=O)N[C@@H](CC(=O)O)C(=O)NCC(=O)N[C@H](CO)C(=O)N[C@@H]([C@H](C)CC(=O)O)C(=O)N[C@@H](CC(=O)c2ccccc2N)C(=O)O[C@@H]1C [Daptomycin]	bactericidal		
Colistin	bactericidal		Issues with Respect to In vivo Toxicity or Side Effects (in vivo use): Only used as last resort antibiotics
CN[C@H](CC(C)C)C(=O)N[C@H]1C(=O)N[C@@H](CC(N)=O)C(=O)N[C@H]2C(=O)N[C@H]3C(=O)N[C@H](C(=O)N[C@H](C(=O)O)c4cc(O)cc(O)c4-c4cc3ccc4O)[C@H](O)c3ccc(c(Cl)c3)Oc3cc2cc(c3O[C@@H]2O[C@H](CO)[C@@H](O)[C@H](O)[C@H]2O[C@H]2C[C@](C)(N)[C@H](O)[C@H](C)O2)Oc2ccc(cc2Cl)[C@H]1O [vancomycin]			killing S. aureus [2]: under basic conditions better than under slightly acidic conditions
Polymixin B	bactericidal	due to renal and neurotoxicity	
O=C=O [CO2, Carbon dioxide]			inactivation of Listeria [3]: enhanced the inactivation
NC[C@H]1O[C@H](O[C@H]2[C@H](O)[C@@H](O[C@H]3O[C@H](CO)[C@@H](O)[C@H](N)[C@H]3O)[C@H](N)C[C@@H]2N)[C@H](N)C[C@@H]1O [Tobramycin]	bactericidal	Nephrotoxicity, ototoxicity	
Gentamycin	bactericidal		Issues with Respect to In vivo Toxicity or Side Effects (in vivo use): Nephrotoxicity, ototoxicity
O=C(O)c1cn(C2CC2)c2cc(N3CCNCC3)c(F)cc2c1=O [Ciprofloxalin]	bactericidal		
CN(C)c1cc(NC(=O)CNC(C)(C)C)c(O)c2c1C[C@H]1C[C@H]3[C@H](N(C)C)C(O)=C(C(N)=O)C(=O)[C@@]3(O)C(O)=C1C2=O [Tigecycline]	static		
NCC[C@H](O)C(=O)N[C@@H]1C[C@H](N)[C@@H](O[C@H]2O[C@H](CN)[C@@H](O)[C@H](O)[C@H]2O)[C@H](O)[C@H]1O[C@H]1O[C@H](CO)[C@@H](O)[C@H](N)[C@H]1O [Amikacin]	bactericidal	Nephrotoxicity, ototoxicity	
N[C@@H]1[C@H]2CN(c3nc4c(cc3F)c(=O)c(C(=O)O)cn4-c3ccc(F)cc3F)C[C@@H]12 [Trovafloxacin]	bactericidal	Histamine release, Idiosyncratic	
